Measurements from ChEMBL document CHEMBL5230108, “Computational methods-guided design of modulators targeting protein-protein interactions (PPIs)” (Eur J Med Chem, 2020).
Numbered stars: 1 amine (or outer) side, 2 acyl side, 3 side chain; on linkers, the order of the positions; unused ones are H or OH. Square brackets hold non-standard residues; d marks the D form. Peptide text beside a SMILES is read from it. * marks the point of attachment. ξ: configuration not given here. X1 = O=C(O)c1cc(NC(=S)*)ccc1-c1c2ccc(=O)cc-2oc2cc(O)ccc12; N(2-(2-PhOPh)Et)Gly = O=C(O)CNCCc1ccccc1Oc1ccccc1; Gly(N-3,5-(OMe)2-Ph) = COc1cc(NCC(=O)O)cc(OC)c1; X2 = COc1ccc([C@H](C)N(CC(=O)[*:2])[*:1])cc1; Ala(cPent) = N[C@@H](CC1CCCC1)C(=O)O; N((CH2)3OiPr)Gly = CC(C)OCCCNCC(=O)O; Cbz = O=C(OCc1ccccc1)*; ξI = CCC(C)C(N)C(=O)O; βAla = NCCC(=O)O; ξA = CC(N)C(=O)O

How the values were obtained:
[1] = target: Tumour suppressor protein p53/Mdm4 (Homo sapiens, UniProt O15151+P04637); test: Inhibition of human DMX-p53 protein-protein interaction […]; assay type: protein assay
[2] = target: Catenin beta-1/Transcription factor 7 (Homo sapiens) (UniProt P36402+P35222); test: Binding affinity to beta-catenin/Tcf (unknown origin) assessed as gibbs free energy change; assay type: protein assay
[3] = target: Adenomatous polyposis coli protein (Homo sapiens, UniProt P25054); test: Binding affinity to APC (unknown origin) assessed as inhibition constant by ITC analysis
[4] = Binding affinity to APC/ASEF (unknown origin) protein protein interaction assessed as dissociation constant by ITC analysis; set-up: species or system Homo sapiens
[5] = target: Heat shock protein HSP90 (Homo sapiens, UniProt P07900+P08238); test: Binding affinity to HSP90 (unknown origin) assessed as dissociation constant; assay type: protein assay
[6] = target: Histone-lysine N-methyltransferase 2A (Homo sapiens, UniProt Q03164); test: Competitive binding affinity to full length wild type MLL (unknown origin)
[7] = target: Catenin beta-1/Transcription factor 7 (Homo sapiens, UniProt P35222+P36402); test: Inhibition of N-terminal beta-catenin/full length myc-tagged TCF (unknown origin) trasfected in HEK293 cells measured for 48 hrs by; assay type: cell-based
[8] = Inhibition of full length GST-tagged Wnt (unknown origin) by luciferase assay; set-up: species or system Homo sapiens

Sequence of Tumour suppressor protein p53/Mdm4 (P04637 whole entry): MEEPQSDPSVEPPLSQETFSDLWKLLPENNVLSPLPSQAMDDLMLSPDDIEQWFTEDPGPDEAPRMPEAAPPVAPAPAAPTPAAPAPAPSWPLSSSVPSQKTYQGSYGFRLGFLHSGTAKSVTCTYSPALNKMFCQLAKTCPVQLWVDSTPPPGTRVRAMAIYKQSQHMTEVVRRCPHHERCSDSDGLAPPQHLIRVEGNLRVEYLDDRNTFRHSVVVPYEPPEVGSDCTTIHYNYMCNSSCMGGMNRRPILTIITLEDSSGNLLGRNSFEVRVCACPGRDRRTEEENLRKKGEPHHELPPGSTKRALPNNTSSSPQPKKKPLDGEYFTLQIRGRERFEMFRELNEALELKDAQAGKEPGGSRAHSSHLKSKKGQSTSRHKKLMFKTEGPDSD
Sequence of Tumour suppressor protein p53/Mdm4 (O15151 whole entry): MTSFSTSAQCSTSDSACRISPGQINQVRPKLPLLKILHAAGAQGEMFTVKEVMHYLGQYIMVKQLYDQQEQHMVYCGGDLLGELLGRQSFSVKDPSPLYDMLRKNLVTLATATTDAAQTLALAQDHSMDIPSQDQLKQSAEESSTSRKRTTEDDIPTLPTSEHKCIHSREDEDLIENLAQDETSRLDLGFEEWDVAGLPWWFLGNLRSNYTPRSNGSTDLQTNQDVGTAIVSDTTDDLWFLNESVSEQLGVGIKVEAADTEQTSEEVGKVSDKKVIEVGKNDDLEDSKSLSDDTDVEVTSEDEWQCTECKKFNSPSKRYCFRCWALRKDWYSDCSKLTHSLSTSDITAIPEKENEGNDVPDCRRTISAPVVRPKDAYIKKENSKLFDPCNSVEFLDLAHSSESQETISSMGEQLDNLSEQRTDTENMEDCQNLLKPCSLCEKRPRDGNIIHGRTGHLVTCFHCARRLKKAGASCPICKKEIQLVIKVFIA
Sequence of Histone-lysine N-methyltransferase 2A (Q03164 1-2718 limits assumed): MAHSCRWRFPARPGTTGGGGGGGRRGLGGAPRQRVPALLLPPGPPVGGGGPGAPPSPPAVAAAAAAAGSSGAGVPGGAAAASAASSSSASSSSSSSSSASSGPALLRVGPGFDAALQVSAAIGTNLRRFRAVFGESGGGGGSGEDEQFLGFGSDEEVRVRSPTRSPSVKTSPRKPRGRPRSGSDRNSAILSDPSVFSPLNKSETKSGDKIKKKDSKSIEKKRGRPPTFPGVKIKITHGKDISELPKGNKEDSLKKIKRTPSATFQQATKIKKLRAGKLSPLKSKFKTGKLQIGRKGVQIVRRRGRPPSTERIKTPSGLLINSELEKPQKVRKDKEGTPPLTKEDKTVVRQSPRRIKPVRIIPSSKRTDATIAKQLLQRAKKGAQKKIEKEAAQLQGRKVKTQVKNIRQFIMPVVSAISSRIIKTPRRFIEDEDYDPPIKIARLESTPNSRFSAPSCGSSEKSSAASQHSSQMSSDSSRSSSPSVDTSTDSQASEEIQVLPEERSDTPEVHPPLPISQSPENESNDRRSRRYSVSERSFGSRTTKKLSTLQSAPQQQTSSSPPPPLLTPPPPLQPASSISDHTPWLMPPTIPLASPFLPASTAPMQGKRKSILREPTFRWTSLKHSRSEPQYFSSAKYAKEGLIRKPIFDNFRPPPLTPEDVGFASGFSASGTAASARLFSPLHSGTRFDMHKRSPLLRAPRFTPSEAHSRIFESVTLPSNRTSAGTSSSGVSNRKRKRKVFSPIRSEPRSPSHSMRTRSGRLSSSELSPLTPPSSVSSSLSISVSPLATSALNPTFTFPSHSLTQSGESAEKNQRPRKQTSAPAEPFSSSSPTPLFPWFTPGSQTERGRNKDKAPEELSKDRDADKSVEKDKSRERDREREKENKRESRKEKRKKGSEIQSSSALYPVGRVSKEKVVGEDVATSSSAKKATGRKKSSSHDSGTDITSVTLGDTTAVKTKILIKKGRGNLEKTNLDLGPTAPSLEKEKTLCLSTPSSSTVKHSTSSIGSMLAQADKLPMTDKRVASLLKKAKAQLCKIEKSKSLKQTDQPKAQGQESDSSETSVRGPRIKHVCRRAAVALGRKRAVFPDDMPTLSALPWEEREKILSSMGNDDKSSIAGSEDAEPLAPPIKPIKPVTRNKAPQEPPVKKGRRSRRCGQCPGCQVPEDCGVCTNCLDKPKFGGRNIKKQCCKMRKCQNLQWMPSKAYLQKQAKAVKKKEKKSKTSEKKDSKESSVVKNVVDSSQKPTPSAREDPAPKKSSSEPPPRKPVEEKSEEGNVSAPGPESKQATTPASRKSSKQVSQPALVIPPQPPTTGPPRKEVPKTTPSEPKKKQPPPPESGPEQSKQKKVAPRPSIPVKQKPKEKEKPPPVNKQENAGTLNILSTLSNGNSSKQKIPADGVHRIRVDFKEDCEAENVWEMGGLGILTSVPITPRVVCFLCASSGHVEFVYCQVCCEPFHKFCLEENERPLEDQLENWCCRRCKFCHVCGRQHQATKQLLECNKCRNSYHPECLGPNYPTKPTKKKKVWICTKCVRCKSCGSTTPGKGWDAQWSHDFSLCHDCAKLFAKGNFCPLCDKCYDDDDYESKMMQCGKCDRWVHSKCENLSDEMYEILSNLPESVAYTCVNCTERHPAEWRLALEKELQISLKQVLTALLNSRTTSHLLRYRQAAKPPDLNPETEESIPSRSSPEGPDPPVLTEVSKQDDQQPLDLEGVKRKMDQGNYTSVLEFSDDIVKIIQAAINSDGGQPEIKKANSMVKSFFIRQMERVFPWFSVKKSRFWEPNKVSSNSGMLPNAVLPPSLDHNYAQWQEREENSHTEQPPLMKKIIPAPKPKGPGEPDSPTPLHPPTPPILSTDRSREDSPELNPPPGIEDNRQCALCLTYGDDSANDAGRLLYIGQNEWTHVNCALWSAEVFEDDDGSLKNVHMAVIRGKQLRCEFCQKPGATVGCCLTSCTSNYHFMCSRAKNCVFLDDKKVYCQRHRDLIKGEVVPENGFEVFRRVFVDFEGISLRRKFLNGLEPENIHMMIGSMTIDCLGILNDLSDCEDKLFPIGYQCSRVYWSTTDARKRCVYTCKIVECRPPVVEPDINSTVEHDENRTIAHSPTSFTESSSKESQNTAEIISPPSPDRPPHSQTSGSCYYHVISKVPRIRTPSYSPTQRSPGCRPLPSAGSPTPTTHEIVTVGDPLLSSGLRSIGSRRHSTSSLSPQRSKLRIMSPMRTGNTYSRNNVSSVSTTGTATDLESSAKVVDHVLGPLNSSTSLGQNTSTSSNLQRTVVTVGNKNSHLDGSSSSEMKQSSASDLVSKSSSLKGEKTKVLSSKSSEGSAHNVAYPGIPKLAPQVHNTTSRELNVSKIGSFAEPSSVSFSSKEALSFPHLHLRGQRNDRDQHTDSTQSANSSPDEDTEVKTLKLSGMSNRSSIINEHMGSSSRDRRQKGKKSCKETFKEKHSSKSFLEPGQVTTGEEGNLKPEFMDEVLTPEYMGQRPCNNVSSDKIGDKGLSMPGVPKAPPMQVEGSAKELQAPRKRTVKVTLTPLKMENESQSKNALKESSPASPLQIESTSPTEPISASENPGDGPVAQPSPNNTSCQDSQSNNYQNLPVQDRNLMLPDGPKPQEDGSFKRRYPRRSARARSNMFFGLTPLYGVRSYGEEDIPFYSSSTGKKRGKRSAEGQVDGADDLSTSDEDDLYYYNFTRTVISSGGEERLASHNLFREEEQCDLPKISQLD
Sequence of Histone-lysine N-methyltransferase 2A (Q03164 2719-3969 limits assumed): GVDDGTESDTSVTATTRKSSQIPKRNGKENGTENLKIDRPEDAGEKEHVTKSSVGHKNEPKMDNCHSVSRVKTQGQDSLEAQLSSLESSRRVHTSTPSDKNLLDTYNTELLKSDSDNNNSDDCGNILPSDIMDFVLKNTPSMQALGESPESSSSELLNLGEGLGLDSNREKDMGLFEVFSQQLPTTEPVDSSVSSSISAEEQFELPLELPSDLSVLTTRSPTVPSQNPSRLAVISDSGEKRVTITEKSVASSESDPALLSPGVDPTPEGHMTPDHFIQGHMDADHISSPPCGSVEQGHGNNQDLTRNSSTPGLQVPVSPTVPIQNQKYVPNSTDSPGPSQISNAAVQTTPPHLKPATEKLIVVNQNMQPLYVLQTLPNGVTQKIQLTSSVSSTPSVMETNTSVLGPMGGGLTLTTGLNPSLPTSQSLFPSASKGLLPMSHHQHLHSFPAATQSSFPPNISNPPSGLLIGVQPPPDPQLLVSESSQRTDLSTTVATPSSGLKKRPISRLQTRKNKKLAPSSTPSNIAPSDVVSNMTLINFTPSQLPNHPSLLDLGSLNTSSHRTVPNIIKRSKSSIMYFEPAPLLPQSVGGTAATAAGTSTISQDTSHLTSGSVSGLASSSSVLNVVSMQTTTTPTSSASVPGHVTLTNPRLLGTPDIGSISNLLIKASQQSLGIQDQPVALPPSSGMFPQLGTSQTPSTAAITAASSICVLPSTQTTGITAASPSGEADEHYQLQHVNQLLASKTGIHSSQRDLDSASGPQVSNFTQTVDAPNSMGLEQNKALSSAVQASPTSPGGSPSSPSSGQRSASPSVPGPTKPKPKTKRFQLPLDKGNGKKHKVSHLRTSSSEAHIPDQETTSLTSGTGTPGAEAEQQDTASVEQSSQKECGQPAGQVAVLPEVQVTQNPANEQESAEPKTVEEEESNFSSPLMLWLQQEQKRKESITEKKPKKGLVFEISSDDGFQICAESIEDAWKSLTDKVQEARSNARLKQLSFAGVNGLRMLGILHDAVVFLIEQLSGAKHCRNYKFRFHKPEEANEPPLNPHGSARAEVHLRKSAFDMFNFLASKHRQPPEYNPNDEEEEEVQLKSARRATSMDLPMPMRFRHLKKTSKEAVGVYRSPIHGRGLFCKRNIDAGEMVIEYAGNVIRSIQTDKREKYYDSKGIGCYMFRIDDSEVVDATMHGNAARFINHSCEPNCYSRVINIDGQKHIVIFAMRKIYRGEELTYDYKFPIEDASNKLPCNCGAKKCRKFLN

Compound	IC50 [1] [µM]	other results
Fc1ccc(-c2cn(CSc3ccccc3)nn2)c(F)c1	> 0.1	
COCCN1CC(=O)N(CCc2ccc(OC)cc2)CC(=O)N(c2cc(OC)cc(OC)c2)CC(=O)N(C(C)c2ccc(OC)cc2)CC(=O)N(C(C)c2ccc(OC)cc2)CC(=O)N[C@H](C)C1=O (stereo partly drawn)		deltaG [2]: -15.9 kcal/mol
O=C(N[C@@H](Cn1cc(-c2ccc(F)cc2F)nn1)C(=O)O)OCC1c2ccccc2-c2ccccc21	0.00174	
OC[C@H]1OC(n2cc(-c3ccc(F)cc3F)nn2)[C@H](O)[C@@H](O)[C@@H]1O (stereo partly drawn)	0.0001	
C[C@](O)(c1ccccc1)c1cn(C[C@H](NC(=O)OCC2c3ccccc3-c3ccccc32)C(=O)O)nn1	0.00577	
C[C@](O)(c1cccc(F)c1)c1cn(CSc2ccccc2)nn1	0.008	
C[C@](O)(c1cccc(F)c1)c1cn(C2O[C@H](CO)[C@@H](O)[C@H](O)[C@H]2O)nn1 (stereo partly drawn)	0.00024	
C[C@H](NC(=O)OCc1ccccc1)C(=O)NCC(=O)N[C@@H](CCC(=O)O)C(=O)N[C@@H](C)C(=O)N[C@@H](CC1CCCC1)C(=O)N[C@@H](Cc1ccc(O)cc1)C(=O)N[C@@H](CCC(=O)O)C(N)=O (Cbz-AGEA[Ala(cPent)]YE-NH2)		Ki [3]: 0.015 µM
CCC(C)C(NC(=O)C(C)NC(=O)[C@H](CC(C)C)NC(=O)[C@H](CCC(N)=O)NC(=O)[C@H](CCC(=O)O)NC(=O)CNC(=O)CNC(C)=O)C(N)=O (stereo partly drawn) (Ac-GGEQL[ξA][ξI]-NH2)		Kd [4]: 0.018 µM
CC(=O)N[C@@H]1C(n2cc([C@@](C)(O)c3cccc(F)c3)nn2)O[C@H](COCc2ccccc2)[C@H](OCc2ccccc2)[C@@H]1OCc1ccccc1 (stereo partly drawn)	0.0224	Kd [5]: 21.1 µM
CC[C@H](C)[C@H](NC(=O)[C@H](CC(=O)O)NC(=O)[C@H](CO)NC(=O)CCNC(=S)Nc1ccc(-c2c3ccc(=O)cc-3oc3cc(O)ccc23)c(C(=O)O)c1)C(=O)N[C@@H](CCSC)C(=O)N[C@@H](CC(=O)O)C(=O)N[C@@H](Cc1ccccc1)C(=O)N[C@H](C(=O)N[C@@H](CC(C)C)C(=O)N[C@@H](CCCCN)C(=O)N[C@@H](CC(N)=O)C(=O)N[C@H](C(=O)N1CCC[C@H]1C(N)=O)[C@@H](C)O)C(C)C ({X1-βAla}-SDIMDFVLKNTP-NH2)		Kd [6]: > 100 µM; Ki [6]: > 1000 µM
O=C(N[C@@H](Cn1cc(-c2ccccc2)nn1)C(=O)O)OCC1c2ccccc2-c2ccccc21	0.00246	
Cc1cn([C@H]2C[C@H](n3cc([C@]4(O)CC[C@H]5[C@@H]6CCc7cc(O)ccc7[C@H]6CC[C@@]54C)nn3)[C@@H](CO)O2)c(=O)[nH]c1=O	0.0124	
CC(=O)N[C@@H]1C(n2cc(-c3ccc(F)cc3F)nn2)O[C@H](COCc2ccccc2)[C@H](OCc2ccccc2)[C@@H]1OCc1ccccc1 (stereo partly drawn)	> 0.1	
COc1ccc([C@H](C)N2CC(=O)N[C@H](C)C(=O)N(CCc3ccccc3Oc3ccccc3)CC(=O)N(c3cc(OC)cc(OC)c3)CC(=O)N(CCCOC(C)C)CC(=O)N([C@@H](C)c3ccc(OC)cc3)CC2=O)cc1 (cyclo([dA][N(2-(2-PhOPh)Et)Gly][Gly(N-3,5-(OMe)2-Ph)][N((CH2)3OiPr)Gly][X2][X2]))		IC50 [7]: 5.44 µM; IC50 [8]: 0.105 µM
